# Assay results published in ChEMBL document CHEMBL3400000, “The discovery of potent agonists for GPR88, an orphan GPCR, for the potential treatment of CNS disorders” (Bioorg Med Chem Lett, 2015).
# Target: G protein-coupled receptor 88 (Homo sapiens, UniProt Q9GZN0)
# Test: Agonist activity at GPR88 (unknown origin) transfected into cells assessed as cAMP accumulation by HTRF assay
# Type: functional
# Sequence of G protein-coupled receptor 88 (Q9GZN0 whole entry): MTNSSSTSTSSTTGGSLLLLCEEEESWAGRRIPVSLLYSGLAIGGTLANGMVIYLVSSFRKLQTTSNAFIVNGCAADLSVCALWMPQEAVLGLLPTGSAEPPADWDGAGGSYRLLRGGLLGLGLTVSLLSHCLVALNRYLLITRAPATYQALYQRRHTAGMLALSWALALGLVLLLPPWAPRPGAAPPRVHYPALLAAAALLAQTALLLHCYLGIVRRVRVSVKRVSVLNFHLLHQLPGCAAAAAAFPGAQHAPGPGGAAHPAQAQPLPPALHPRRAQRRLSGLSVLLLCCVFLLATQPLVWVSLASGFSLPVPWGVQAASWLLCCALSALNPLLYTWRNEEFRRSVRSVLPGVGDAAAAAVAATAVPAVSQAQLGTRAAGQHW
row,EC50 [nM],SMILES
1,730,CC[C@H](C)[C@H](N)CN(C(=O)[C@@H]1C[C@H]1c1nc(C)cs1)c1ccc(-c2ccccc2)cc1
2,10,O=C([C@@H]1C[C@H]1c1ccccc1)N(CC1CCCNC1)c1ccc(-c2ccccc2)cc1 (stereo partly drawn)
3,1600,CC[C@H](C)[C@H](N)CN(C(=O)[C@@H]1C[C@H]1c1cccc(C#N)c1)c1ccc(-c2ccccc2)cc1
4,170,CC[C@H](C)[C@H](N)CN(C(=O)[C@@H]1C[C@H]1c1ccccc1)c1ccc(-c2ccc(OC(F)(F)F)cc2)cc1
5,> 100,CC(C)CCCN(C(=O)[C@@H]1C[C@H]1c1ccccc1)c1ccc(-c2ccccc2)cc1
6,130,CC[C@H](C)[C@H](N)CN(C(=O)[C@@H]1C[C@H]1c1ccccn1)c1ccc(-c2ccccc2)cc1
7,44,CCc1ccc(-c2ccc(N(C[C@@H](N)[C@@H](C)CC)C(=O)[C@@H]3C[C@H]3c3ccccc3)cc2)cc1
8,210,CC[C@H](C)[C@H](N)CN(C(=O)[C@@H]1C[C@H]1c1nccs1)c1ccc(-c2ccccc2)cc1
9,1600,CC(C)C[C@H](N)CN(C(=O)[C@@H]1C[C@H]1c1ccccc1)c1ccc(-c2ccccc2F)cc1
10,1100,CC[C@H](C)[C@H](N)CN(C(=O)[C@@H]1C[C@H]1c1ccccc1)c1ccc(-c2ccc(CO)cc2)cc1
11,640,CC(C)C[C@H](N)CN(C(=O)[C@@H]1C[C@H]1c1ccccc1)c1ccc(-c2ccc(Cl)cc2)cc1
12,11000,CC[C@H](C)[C@H](N)CN(C(=O)[C@@H]1C[C@H]1c1c(F)cccc1F)c1ccc(-c2ccccc2)cc1
13,4.7,N[C@H](CN(C(=O)[C@@H]1C[C@H]1c1ccccc1)c1ccc(-c2ccccc2)cc1)c1ccccc1
14,90,CCOc1ccc(-c2ccc(N(C[C@@H](N)[C@@H](C)CC)C(=O)[C@@H]3C[C@H]3c3ccccc3)cc2)cc1
15,120,CC[C@H](C)[C@H](N)CN(C(=O)[C@@H]1C[C@H]1c1ccccc1)c1ccc(-c2ccc(OC)cc2)cc1
16,260,CCOC(=O)c1ccc(-c2ccc(N(C[C@@H](N)[C@@H](C)CC)C(=O)[C@@H]3C[C@H]3c3ccccc3)cc2)cc1
17,2100,CC(C)C[C@H](N)CN(C(=O)[C@@H]1C[C@H]1c1ccccc1)c1ccc(-c2cccc(F)c2)cc1
18,> 25000,CC[C@H](C)[C@H](N)CN(C(=O)[C@@H]1C[C@H]1c1ccc(C#N)cc1)c1ccc(-c2ccccc2)cc1
19,1200,CC(C)C[C@H](N)CN(C(=O)[C@@H]1C[C@H]1c1ccccc1)c1ccc(C2=CCCC2)cc1
20,880,CC(C)C[C@H](N)CN(C(=O)[C@@H]1C[C@H]1c1ccccc1)c1ccc(-c2ccccc2)cc1 (racemic)
21,1.7,N[C@@H](CC1CCCCC1)CN(C(=O)[C@@H]1C[C@H]1c1ccccc1)c1ccc(-c2ccccc2)cc1
22,61,CCCc1ccc(-c2ccc(N(C[C@@H](N)[C@@H](C)CC)C(=O)[C@@H]3C[C@H]3c3ccccc3)cc2)cc1
23,4500,CC(C)C[C@H](N)CN(C(=O)[C@@H]1C[C@H]1c1ccccc1)c1ccc(-c2cccc(C#N)c2)cc1
